Measurements published in patent publication US20060093628A1, “Protein aggregate magnesium-ammonium phospholinoleate-palmitoleate anhydride immonomodulator, its production process and formulation” (priority 2004, published 2006).

Assays:
Lysteria monocytogenes [1] = assay: In vitro antibacterial activity; type: cell-based
cytokines (IL-2, IFN) = assay: Cytokines in spleen cell cultures from mice infected with L. monocytogenes; type: in vivo, Balb/c mice; details: pre-treatment with 5.0 mg/kg; culture of spleen cells
Method: Levels of the same cytokines found in Balb/c mice infected with L. monocytogenes and subjected to pre-treatment with 5.0 mg/kg of the compound of the present invention supplied additional information about its biological activity. The increase in production of IL-2 e IFN- by the culture of spleen cells from these animals indicate a modulation of the inflammatory-like response, which is fundamental for eradication of the infection.

Lysteria monocytogenes [2] = assay: Lethal Lysteria monocytogenes infection in Balb/c mice; type: in vivo
Ehrlich ascitic tumor = Ehrlich ascitic tumor in Balb/c mice; type: in vivo; details: 5.0 mg/kg subcutaneous for 7 days
Method: Treatment with doses of 5.0 mg/kg of the compound of the present invention, subcutaneously administered for a period of 7 days to Balb/c mice which had been intraperitoneally inoculated with Ehrlich ascitic tumor inhibited 50% of the tumoral growth and increased by 50% the survival of the animals.

[3] = Toxicity in tufted capuchin monkey, 30 days; type: in vivo, tufted capuchin monkey (Cebus apella); details: doses up to 30 mg/kg
Excerpt: (§1) e) In vivo toxicologic properties.

[4] = rat, in vivo, ip, 750 mg/kg
Method: The bioavailability of the compound of the present invention was evaluated in Wistar rats by administering a single intraperitoneal dose of 750 mg/kg.

plasmacytoma = assay: Subcutaneously inoculated plasmacytoma in Balb/c mice; type: in vivo; details: 5.0 mg/kg intraperitoneal, 3 doses per week, 7 weeks
Excerpt: (§2) b) Antitumoral properties through immune response modulation.

[5] = Toxicity in Wistar rats, 90 days; type: in vivo; details: doses up to 100 mg/kg
Excerpt: as §1

[6] = Toxicity in mice, single doses; type: in vivo
Excerpt: as §1

[7] = system: parvovirus and distemper virus; assay: Treatment of dogs carrying parvovirus and distemper virus; type: in vivo
Excerpt: a) Antiviral properties through immune response modulation.

[8] = system: granulocyte-macrophage precursor cells (CFU-GM); assay: Granulocyte-macrophage precursor cells (CFU-GM) in mice with Ehrlich ascitic tumor; type: in vivo, Balb/c mice
[9] = system: spontaneous mammary carcinoma; assay: Transplanted spontaneous mammary carcinoma in WAB/Not mice; type: in vivo; details: 5.0 mg/kg intraperitoneal, 3 doses per week, 7 weeks
Excerpt: as §2

[10] = system: lymphocytes and natural killer (NK) cells; assay: Functional ability of immunocompetent cells in mice with Ehrlich ascitic tumor; type: in vivo, Balb/c mice; details: 5.0 mg/kg for 7 days
Method: (§3) Treatment of Balb/c mice, inoculated with Ehrlich ascitic tumor, with 5.0 mg/kg of the compound of the present invention for a period of 7 days was also able to modulate the functional ability of mature immunocompetent cells, supplying additional evidence about the action mechanisms of the compound. This treatment protocol stimulated the proliferative ability of lymphocytes and the cytotoxicity mediated by natural killer (NK) cells.

[11] = system: 53 tumor cell cultures representing 8 distinct tumor types and leukemia
Excerpt: Cytotoxicity of the compound of the present invention was studied in the range of 10^−4 to 10^−8 M in 53 tumor cell cultures representing 8 distinct tumor types (lung, colon, central nervous system, melanoma, ovary, kidney, prostate and mammary) and leukemia.

[12] = system: cytokines (IL-2, IFN, IL-4, IL-10); assay: Cytokines in ConA-stimulated splenic cell cultures from mice with Ehrlich ascitic tumor; type: in vivo, Balb/c mice; details: 5.0 mg/kg for 7 days
Method: as §3

[13] = system: granulocyte-macrophage precursor cells in the bone marrow; assay: In vitro growth and differentiation of bone marrow granulocyte-macrophage precursor cells; type: cell-based; details: bone marrow from normal donor Balb/c mice
Walker 256 tumoral cells [14] = assay: Walker 256 tumor in gamma-irradiated immunodepressed Wistar rats; type: in vivo; details: rats exposed to 4 Gy gamma radiation, subcutaneous administration
Excerpt: c) Immunomodulatory properties.

[15] = Immunotoxic properties in tufted capuchin monkey; design: species or system tufted capuchin monkey (Cebus apella); details: in vivo
Method: f) Immunotoxic properties. […] The following organs were analyzed: bone marrow, spleen, lymph nodes, tonsils, and renal gland e Peyer's patch.
The spleen presented an increase of secondary follicles in the white pulp.
However, these cell alterations, found in the anatomopathological examination of the spleen from animals treated with the compound of the present invention, cannot be considered pathological in character; rather, they are due to immune system modulation caused by the use of the compound of the present invention.

Walker 256 tumoral cells [16] = assay: Walker 256 tumor in female Wistar rats; type: in vivo; details: daily subcutaneous doses of 0.5 mg/kg
[17] = splenic cells stimulated by ConA

Substance: protein aggregate of ammonium and magnesium phospholinoleate-palmitoleate anhydride [compound of the present invention]
- in vitro antibacterial activity (Lysteria monocytogenes [1]): does not display in vitro antibacterial activity
- production of IFN- (cytokines (IL-2, IFN)): increase
- production of IL-2 (cytokines (IL-2, IFN)): increase
- mice protected against lethal infection (Lysteria monocytogenes [2]; pre-treatment 0.5 mg/kg subcutaneous for 7 days): 30%
- mice protected against lethal infection (Lysteria monocytogenes [2]; pre-treatment 5.0 mg/kg subcutaneous for 7 days): 40%
- myeloprotection (Lysteria monocytogenes [2]; pre-treatment subcutaneous for 7 days): promoted myeloprotection
- increase in survival (Ehrlich ascitic tumor): 50%
- inhibition of tumoral growth (Ehrlich ascitic tumor): 50%
- toxic effects [3]: No toxic effects
- plasma t1/2 [4]: about 2 h
- increase in survival (plasmacytoma): 50%
- tumoral growth rate (plasmacytoma): significant decrease
- toxic effects [5]: No toxic effects
- toxic effects ([6]; single doses up to 2000 mg/kg): No toxic effects
- hematological, biochemical, physiological and anatomopathological parameters ([6]; stated jointly for the mouse, monkey and rat studies, treated vs control animals): No significant variation
- white blood cell count ([7]; blood of treated dogs vs infected controls treated with saline only): significant increase
- recovery rate ([7]; dogs carrying parvovirus and distemper virus): higher recovery rate
- CFU-GM count in the spleen and splenomegalia ([8]; 5.0 mg/kg for 7 days): significant reduction
- myelopoiesis modulation ([8]; 5.0 mg/kg for 7 days before or after inoculation): particularly efficient
- number of granulocyte-macrophage precursor cells in the bone marrow (CFU-GM) ([8]; 0.5 to 5.0 mg/kg subcutaneous for 7 days): dose-dependent increase
- increase in survival [9]: 50%
- tumoral growth rate [9]: significant decrease
- cytotoxicity mediated by natural killer (NK) cells [10]: stimulated
- proliferative ability of lymphocytes [10]: stimulated
- cytotoxicity for tumor cells [11]: did not display cytotoxicity
- interleukin-4 (IL-4) levels [12]: No alteration
- production of interleukin-10 (IL-10) ([12]; mice with tumors): significantly reduced
- gamma-interferon (IFN-) [12, 17]: significant increase
- interleukin-2 (IL-2) [12, 17]: significant increase
- in vitro effects on growth and differentiation of granulocyte-macrophage precursor cells [13]: did not present in vitro effects
- response to treatment (Walker 256 tumoral cells [14]): did not respond
- granulocytic series in the bone marrow [15]: slight activation
- hematocrit and hemoglobin [15]: minor decrease
- immunotoxic properties [15]: No immunotoxic properties
- lymphocyte population [15]: small increase
- red pulp of the spleen, anatomopathological examination [15]: Erytrophagocytosis was visible
- secondary follicles in the white pulp of the spleen [15]: increase
- total leucocytes, particularly polymorphonuclear neutrophils [15]: increase
- animals with tumoral regression (Walker 256 tumoral cells [16]): 50%
